Measured values reported in article PMC7804859, “A metabolically stable apelin-17 analog decreases AVP-induced antidiuresis and improves hyponatremia” (Nature Communications, 2021).
“And” between values parts separate entries of the source, which are not always exact repeats. Equal values may be shown once.

Key:
[1] = system: kidneys of normonatremic Sprague-Dawley rats; test: Kidney histology after 4 days of s.c. administration in rats; format: in vivo, rat; parameters: Tubular injury score: scale not given here
Experimental: 278 Kidneys were fixed in paraformaldehyde 4% overnight and processed for paraffin embedding.
279 Sections of 4 μm thickness were made and stained with the periodic acid-Schiff (PAS)
280 reagent and counterstained with hematoxylin. Histological analyzes were performed by a
281 trained nephrologist (AF), blinded of the treatment group. Tubular injury score was scored
283 vacuolization, epithelial cell shedding, and denuded tubular basement membrane, as follows:
285 calculated from twenty viewing fields selected randomly from the outer medulla and
286 corticomedullary junction and were examined at ×400 magnification. […]

[2] = system: rat outer medullary collecting ducts (OMCDs); test: dDAVP-induced cAMP production in microdissected rat outer medullary collecting ducts; format: cell-based
Experimental: The left kidney of male rats was prepared for nephron microdissection, as previously described[51]. Pieces of OMCDs were isolated under a stereomicroscope.
Then cells were treated with 10
180 37°C. Then the media was removed and 100 µl of lysis buffer (Cisbio Bioassays, Codolet,
181 France) was added to Transwell filter and plate was incubated at 20°C for 2 hours. Cell
183 384-well plates (Perkin Elmer) according to manufacturer’s instructions (Cisbio Bioassays,
184 Codolet, France). Cyclic AMP levels were measured in microdissected OMCDs by the same
Results are expressed in femtomoles of cAMP produced
186 per mm tubular length and per 10 min incubation time at 37°C.

[3] = target: T1, rat apelin-R-EGFP (Rattus norvegicus, UniProt Q9JHG3); test: Inhibition of forskolin-induced cAMP production in CHO cells stably expressing rat apelin-R-EGFP (HTRF); format: cell-based; settings: 5 µmol/l forskolin, 30 min 20 °C
T1 construct: expressed in transfected cells
T1 sequence (Q9JHG3 1-377): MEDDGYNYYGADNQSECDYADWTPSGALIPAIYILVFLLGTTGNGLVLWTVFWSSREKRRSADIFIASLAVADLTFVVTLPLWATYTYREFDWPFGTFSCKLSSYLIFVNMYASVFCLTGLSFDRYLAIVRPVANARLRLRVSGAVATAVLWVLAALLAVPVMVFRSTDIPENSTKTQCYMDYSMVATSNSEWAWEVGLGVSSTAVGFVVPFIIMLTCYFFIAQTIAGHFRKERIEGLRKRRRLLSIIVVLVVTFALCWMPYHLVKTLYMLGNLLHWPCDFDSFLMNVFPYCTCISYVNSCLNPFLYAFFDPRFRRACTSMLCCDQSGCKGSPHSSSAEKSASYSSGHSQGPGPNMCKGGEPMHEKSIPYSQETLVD
Experimental: 152 Supplementary Methods
154 We quantified cAMP production with the cAMP dynamic 2 assay kit (Cisbio Bioassays,
155 Codolet, France), which is based on homogeneous time-resolved fluorescence (HTRF)
156 technology, as previously described 1. For cells expressing the Apelin-R, 2000 CHO cells/well
157 stably expressing rat apelinR-EGFP (clone B70) were added to the 384-well plate and
158 stimulated with 5 µmol/l forskolin (FSK) and various concentrations (0.01 pmol/l to 100 […]
Cells were then lysed, and
165 cAMP levels were determined in accordance with the kit manufacturer’s instructions.
166 Stimulation was performed in stimulation buffer-IBMX (SBI) (Hank’s balanced salt solution
167 (HBSS-Life Technology), 5 mmol/l Hepes, 0.1% BSA stabilizer (Perkin Elmer), 1 mmol/l
168 isobutylmethylxanthine (IBMX, Sigma Aldrich, pH 7.4)). […]

[4] = in vivo; settings: mice, 30 min after s.c. 900 nmol/kg
Experimental: 187 Apelin radioimmunoassay
188 Plasma samples (0.5 ml) were acidified with 0.175 ml of 3 mol/l HCl and stored at -80°C
189 until use for apelin RIA. Before thawing the sample on ice, 0.05% BSA was added, and the
190 samples were centrifuged at 20000 x g at 4°C for 10 min. The supernatants were collected and
191 the pH was adjusted to 6.5 with 10 mol/l NaOH and 2 mol/l Tris-HCl buffer (pH 7.4). Apelin
192 was extracted from plasma by mixing the supernatant with 0.3 ml of 0.1% BSA in H2O and 1
193 ml of 1% trifluoroacetic acid (TFA) - 0.1% BSA, and running the mixture on a Sep-Pak C18
194 cartridge (Waters) previously washed with 2 ml 100% acetonitrile and equilibrated with 5 ml
195 1% TFA - 0.1% BSA. The columns then were washed with 3 ml 1% TFA - 0.1% BSA and
196 apelin was eluted with 1.5 ml 100% acetonitrile. […]
208 Plasma or brain apelin levels w ere deter mined by RIA. Samples (0.1ml) w ere mixed with 125I-
211 dilution: 1/4500) to give a total volume of 0.2 ml and were incubated at 4°C overnight. We
212 used this radioligand instead of [Glp65, Nle75, Tyr77] [125I]-apelin13 since the substitution of
214 derivatives as described previously by 3,4.
215 We then added 0.5 ml of Amerlex (Amersham RPN 510), and the resulting mixture was
216 incubated for 10 min at room temperature. The tubes were centrifuged at 2600 x g at 4°C for
217 20 min. The supernatant was removed and the radioactivity of the precipitates was measured. […]

SMILES: CSCC[C@H](NC(=O)[C@@H]1CCCN1C(=O)CNC(=O)[C@H](CCCCN)NC(=O)[C@H](Cc1c[nH]cn1)NC(=O)[C@H](CO)NC(=O)[C@H](CC(C)C)NC(=O)[C@H](CCCNC(=N)N)NC(=O)[C@@H]1CCCN1C(=O)[C@H](CCCNC(=N)N)NC(=O)[C@H](CCC(N)=O)NC(=O)[C@H](CCCNC(=N)N)NC(=O)[C@H](CCCNC(=N)N)NC(=O)[C@H](Cc1ccccc1)NC(=O)[C@H](CCCCN)NC(=O)CCC(F)(F)C(F)(F)C(F)(F)C(F)(F)C(F)(F)C(F)(F)C(F)(F)C(F)(F)F)C(=O)N1CCC[C@H]1C(=O)N[C@@H](Cc1ccccc1)C(=O)O [LIT01-196]
- Tubular injury score ([1]; 900 nmol/kg SC, individual animals (Fig. S5C source data)): 0.105 and 0.1 and 0.05 and 0.15 and 0
- Glomerular injury score ([1]; 900 nmol/kg SC, individual animals (Fig. S5D source data)): 0.09091 and 0.1053 and 0.1429 and 0.04762 and 0.05
- histological analysis of the kidneys ([1]; 900 nmol/kg s.c. for 4 consecutive days, rats): did not reveal any abnormality
- inhibition of dDAVP-induced cAMP production in OMCDs ([2]; co-application with dDAVP 0.1 nmol/l, increasing concentrations 50 nmol/l to 50 µmol/l): 41%
- cAMP production, value (Fig 2E) ([2]; peptide 5.10-5M, experiment 1): 50
- cAMP production, value (Fig 2E) ([2]; peptide 5.10-5M, experiment 2): 47
- cAMP production, value (Fig 2E) ([2]; peptide 5.10-5M, experiment 3): 56
- cAMP production, value (Fig 2E) ([2]; peptide 5.10-5M, experiment 4): 50
- cAMP production, value (Fig 2E) ([2]; peptide 5.10-5M, experiment 5): 48
- cAMP production, value (Fig 2E) ([2]; peptide 5.10-5M, experiment 6): 49
- cAMP production, value (Fig 2E) ([2]; peptide 5.10-7M, experiment 1): 55
- cAMP production, value (Fig 2E) ([2]; peptide 5.10-7M, experiment 2): 58
- cAMP production, value (Fig 2E) ([2]; peptide 5.10-7M, experiment 3): 52
- cAMP production, value (Fig 2E) ([2]; peptide 5.10-7M, experiment 4): 54
- cAMP production, value (Fig 2E) ([2]; peptide 5.10-7M, experiment 5): 56
- cAMP production, value (Fig 2E) ([2]; peptide 5.10-7M, experiment 6): 53
- cAMP production, value (Fig 2E) ([2]; peptide 5.10-8M, experiment 1): 85
- cAMP production, value (Fig 2E) ([2]; peptide 5.10-8M, experiment 2): 87
- cAMP production, value (Fig 2E) ([2]; peptide 5.10-8M, experiment 3): 90
- cAMP production, value (Fig 2E) ([2]; peptide 5.10-8M, experiment 4): 83
- cAMP production, value (Fig 2E) ([2]; peptide 5.10-8M, experiment 5): 88
- cAMP production, value (Fig 2E) ([2]; peptide 5.10-8M, experiment 6): 81
- IC50 [3]: 1.7 ± 0.5 nM
- plasma apelin-IR levels, times basal levels [4]: 9.7 times
- plasma apelin-IR levels ([4]; basal 1.3 ± 0.073, n = 5): 12.4 ± 2.5 pmol/mL
